The values that follow come from US20060069157A1, “Method of ameliorating or abrogating the effects of a neurodegenerative disorder, such as Huntington's disease, by sodium butyrate chemotherapy” (U.S. DEPARTMENT OF VETERANS AFFAIRS, priority 2004, published 2006).

Entries after “also recorded” stand apart in the source; their conditions may differ.

The experiment concerns R6/2 transgenic mouse model of HD. As to the kind of experiment: Neuropathological evaluation (brain weight, gross atrophy, striatal neuron area) at 90 days. Format: in vivo. On the procedure:
Neuropathological Evaluation of Sodium Butyrate Treatment: Beginning at 21 days, R6/2 transgenic mice and wild-type littermate control mice were treated daily with the most optimal dose of sodium butyrate (1.2 g/kg), as determined by survival studies, or PBS intraperitoneal injections. Groups of 10 animals from each treatment paradigm were deeply anesthetized and transcardially perfused with 4% buffered paraformaldehyde at 90 days of age. Forty mice were used for neuropathological analysis, as previously described (Ferrante et al., 2002). Serially cut tissue sections were stained for Nissl substance and immunostained for huntingtin (monoclonal huntingtin antibody, 1:1,000 dilution, Chemicon International Inc.) and for acetylated histone 3 and histone 4 (dilution, 1:1,000, Upstate Biotechnology, Lake Placid, N.Y.), using a previously reported conjugated secondary antibody method in murine brain tissue samples (Ferrante et al., 2002). Specificity for the antisera used in this study was examined in each immunochemical experiment to assist with the interpretation of the results. Preabsorption with excess target proteins, omission of the primary antibodies, and omission of secondary antibodies were performed to determine the amount of background generated from the detection assay.
Stereology/Quantitation: Serial-cut coronal tissue-sections beginning from the most rostral segment of the neostriatum to the level of the anterior commissure (Inter aural 5.34 mm/Bregma 1.54 mm to Inter aural 3.7 mm/Bregma −0.10 mm), were used for huntingtin aggregate analysis. Unbiased stereological counts of huntingtin-positive aggregates ([…]) were obtained from the neostriatum in 10 mice each from sodium butyrate-treated (1.2 g/kg) and PBS-treated R6/2 mice at 90 days using Neurolucida Stereo Investigator software (Microbrightfield, Colchester, Vt.). The total areas of the rostral neostriatum were defined in serial sections in which counting frames were randomly sampled. The optical dissector method was employed estimating the number of huntingtin-positive aggregates. Striatal neuron areas were analyzed by microscopic videocapture using a Windows-based image analysis system for area measurement (Optimas, Bioscan Incorporated, Edmonds, Wash.). The software automatically identifies and measures profiles. All computer identified cell profiles were manually verified as neurons and exported to Microsoft Excel. Cross-sectional areas were analyzed using Statview.

Where the note is “1.2 g/kg/d i.p. from 21 days, vs wild type littermates (unsupplemented R6/2: 18.9%)”, `CCCC(=O)[O-].[Na+]` [sodium butyrate] had a brain weight loss of 5.6%. Moreover, the striatal neuron area (1.2 g/kg/d i.p., Wt 138.9, PBS-treated R6/2 57.1, p<0.01 vs PBS) is given as 113.5 ± 14.2 _m2. The “reduction of striatal neuron atrophy” value (1.2 g/kg/d i.p., vs PBS-treated R6/2) is given as “one fold”. Moreover, under “1.2 g/kg/d i.p., vs PBS-treated/untreated R6/2”, the “gross brain atrophy, ventricular hypertrophy” value was “reduced gross brain atrophy and ventricular enlargement; also recorded: ameliorated these gross neuropathological sequelae”.
